Converted amounts (≈) assume the structure as drawn. Residues, ends and D or L forms follow the SMILES beside them. *: point of attachment. X1 = CC1(C(=O)*)CCC2(C)CCC3(C)C(=CC(=O)C4C5(C)CCC(O)C(C)(C)C5CCC43C)C2C1
Tests used:
[1] = test system: Bax; assay: Estimation of Bax level in MCF-7 cells; assay type: cell-based, human; conditions: MCF-7 cells treated at IC50 for 24 h; untreated 65.50 Pg/mL
From the text: (§1) The extrinsic pathway (death receptor) and the intrinsic pathway (mitochondrial route) are the main two routes that control a cell during apoptosis. The Bcl-2 protein introduces a central role in tumor growth or suppression the intrinsic apoptotic pathway. Conversely, the pro-apoptotic Bax acts essentially to enhance the process of cell apoptosis. Increasing the level of the anti-apoptotic Bcl-2 within the cancerous cell boosts the cell survival through inhibiting apoptosis. Accordingly, a balance situation between these two proteins determines the cell fate. Furthermore, p53 serves as a transcription factor acting as a tumor suppressor protein. This protein is expressed due to various cellular stresses such as DNA disruption. It is usually mutated in human cancers. The p53 pathway mediates either cell cycle arrest or apoptosis controlling the expression of Bcl-2 and Bax genes. Thus, since compound 5 produced the most promising cytotoxic activity against breast cancer cell lines with a safety profile against the normal cells, it was of interest to study its impact on the regulation of the oncogenic markers Bax, Bcl-2, and p53. […]
The levels of Bax protein were evaluated according to the reported method. […] Then, the reaction was terminated by adding acid, and optical density of the produced color was measured at 450 nm.

[2] = test system: human colon HCT-116 cancer cell line; assay: MTT cytotoxicity assay, colon HCT-116 cancer cell line; conditions: for IC50: Homo sapiens, HCT-116, read-out: IC50 (µg/mL) ± SD HCT-116
Experimental: (§2) Accordingly, all the newly synthesized GA-based peptides except 1 and 6 were screened for their cytotoxicity against three different human cancer cell lines: MCF-7, HCT-116, and HepG-2 cell lines at different concentrations (10, 5, 2.5, 1.25, and 0.625 µg/mL).
(§3) Human breast MCF-7, colon HCT-116, and liver HepG-2 carcinoma cell line were taken from Vacsera (Giza, Egypt). The culture was retained in RPMI 1640 medium with 1% antibiotic–antimycotic mixture (25 μg/mL amphotericin B, 10,000 μg/mL streptomycin sulfate, and 10,000 U/mL potassium penicillin), 1% L-glutamine, and complemented by 10% heat inactivated fetal bovine serum. […] This experiment was carried out according to the reported MTT assay method, and the absorbance was measured at 595 nm.

[3] = test system: caspase-3; assay: Human CASP-3 (caspase-3) estimation in MCF-7 cells; assay type: cell-based; conditions: MCF-7 cells treated at IC50 for 24 h; untreated 162 ng/mL
[4] = test system: human liver cancer (HepG-2) cell line; assay: MTT cytotoxicity assay, liver HepG-2 cancer cell line; assay type: cell-based; conditions: Homo sapiens, HepG2; MTT, mean of three replicates; read-out: IC50 (µg/mL) ± SD HepG-2
Experimental: as §2, §3

[5] = test system: human breast MCF-7 cancer cell line; assay: MTT cytotoxicity assay, breast MCF-7 cancer cell line; assay type: cell-based; conditions: Homo sapiens, MCF7; MTT, mean of three replicates; read-out: IC50 (µg/mL) ± SD MCF-7
Experimental: as §2, §3

[6] = test system: caspase-7; assay: Human CASP-7 (caspase-7) estimation in MCF-7 cells (ELISA); assay type: cell-based; conditions: for level of caspase-7: MCF-7 cells treated at IC50 for 24 h, untreated 0.3 ng/mL
Experimental: (§4) Caspases are a family of cysteine proteases that are responsible for launching the programmed cell death (apoptosis). […] Cell shrinkage, chromatin condensation, and DNA fragmentation are all apoptosis events, which need the involvement of caspase-7and caspase-3 [48, 54, 56].
The micro-ELISA plate provided in this kit pre-coated with CASP-7-specific antibody. A biotinylated CASP7 antibody and Avidin–horseradish p eroxidase (HRP) conjugate was added. Aspire the excess components. The substrate solution was added. Wells that contain CASP-7, biotinylated detection antibody, and Avidin-HRP conjugate will appear blue in color. The color turns yellow followed the addition of sulfuric acid solution. The optical density (OD) was measured at a wavelength of 450 nm ± 2 nm.

[7] = test system: Micrococcus Luteus; assay: Well diffusion assay, Micrococcus Luteus; assay type: cell-based
Experimental: (§5) The newly synthesized peptides 1–8 (compound 6 was not tested) was evaluated for their antimicrobial activity of against three pathogenic Gram-positive bacteria (Staphylococcus aureus ATCC25923, Streptococcus pneumoniaRCMB 010010, and Micrococcus Luteus), three pathogenic Gram-negative bacteria viz. Escherichia coli ATCC25922, Pseudomonas aeruginosa ATCC7853, and Proteus vulgaris RCMB 010085, and the yeast Candida albicans using the well diffusion method. […] The obtained data were documented for each derivative as the average diameter of the inhibition zones (IZ) in mm for the bacterial or the yeast growth around the discs (Table 2). […] Although Micrococcus Luteus bacteria is a normal commensal of human skin and the upper respiratory tract, it acts as an opportunistic pathogen and has been associated with various diseases including meningitis, septic arthritis, and endocarditis. […] Antimicrobial activity of the tested chemical peptides was determined by the well diffusion method for pathogenic bacteria having Gram-positive bacteria (Staphylococcus aureus ATCC25923, Streptococcus pneumonia, and Micrococcus luteus) and Gram-negative bacteria (Escherichia coli ATCC25922, Pseudomonas aeruginosa ATCC7853, and Proteus sp.) and Candida albicans as human pathogen yeast using the well diffusion method.

[8] = test system: human normal skin fibroblasts cell line BJ-1; assay: Cytotoxicity against normal skin fibroblasts BJ-1; assay type: cell-based; conditions: human, 10 µg/mL
Experimental: The frequency and severity of side effects to normal cells at therapeutic levels is one of the most critical factors that distinguish different anticancer drugs from each other. Accordingly, the GA peptides 1–8 were furthermore screened for their cytotoxicity at 10 µg/mL against the human normal skin fibroblasts cell line BJ-1 to determine their safety upon normal cells (Figure 4).

[9] = test system: Proteus vulgaris RCMB 010085; assay: Well diffusion assay, Proteus vulgaris; assay type: cell-based; conditions: Proteus vulgaris RCMB 010085, well diffusion
Experimental: as §5

[10] = test system: Candida albicans; assay: Well diffusion assay, Candida albicans; assay type: cell-based
Experimental: as §5

[11] = molecular target: T1, Tubulin Beta (TUBb) (Homo sapiens, UniProt P07437); assay: ELISA kit for Tubulin Beta (TUBb), tubulin polymerization in MCF-7 cells; assay type: cell-based; conditions: read-out: inhibition of tubulin polymerization IC50 (tubulin B) (converted)
T1 construct: endogenous in cells; host or cells: MCF-7
From the text: as §4

[12] = test system: Escherichia coli ATCC25922; assay: Well diffusion assay, Escherichia coli; assay type: cell-based
Experimental: as §5

[13] = test system: Pseudomonas aeruginosa ATCC7853; assay: Well diffusion assay, Pseudomonas aeruginosa; assay type: cell-based
Experimental: as §5

[14] = test system: MCF-7 cells; assay: DNA fragmentation through DPA assay in MCF-7 cells; assay type: cell-based, human; conditions: treated MCF-7 cells
Experimental: as §4
Assessment of DNA fragmentation of the cells was done, as described by the reported method. Briefly, the cells were lysed for 15 min on ice with 0.5% (v/v) Triton X-100, 20 mM EDTA, and […] Tris (pH 8.0). Then, the cells were centrifuged to separate intact chromatin from DNA fragments for 20 min, at 27,000 Xg. Measurement of the amount of DNA was done using a diphenylamine reagent, and the optical density was measured at 600 nm.

[15] = test system: Streptococcus pneumonia RCMB 010010; assay: Well diffusion assay, Streptococcus pneumonia; assay type: cell-based; conditions: Streptococcus pneumonia RCMB 010010, well diffusion
Experimental: as §5

[16] = test system: Staphylococcus aureus ATCC25923; assay: Well diffusion assay, Staphylococcus aureus; assay type: cell-based
Experimental: as §5

[17] = test system: Human p53; assay: Estimation of human p53 level in MCF-7 cells (ELISA); assay type: cell-based
From the text: as §1, with “genes.” for “genes. Thus, since compound 5 produced the most promising cytotoxic activity against breast cancer cell lines with a safety profile against the normal cells, it was of interest to study its impact on the regulation of the oncogenic markers Bax, Bcl-2, and p53.”
Human p53 present in MCF-7 cells was determined; using Human p53 ELISA-Kit (CS0070 Sigma) read using spectrophotometer at 450 nm against untreated control cells (negative control) and doxorubicin (positive control) applying the standard protocols of the manufacturers. […] Then, the reaction was terminated by adding acid, and the absorbance was measured at 450 nm.

[18] = test system: Bcl-2; assay: Estimation of Bcl-2 level in MCF-7 cells; assay type: cell-based, human; conditions: MCF-7 cells treated at IC50 5 μg/mL for 24 h; untreated 7.20 ng/mL
From the text: as §1
The samples and standards having Bcl-2 were estimated as previously mentioned. […] Then, the reaction was terminated by adding acid, and the absorbance was measured at 450 nm.

T1 sequence (P07437 whole entry): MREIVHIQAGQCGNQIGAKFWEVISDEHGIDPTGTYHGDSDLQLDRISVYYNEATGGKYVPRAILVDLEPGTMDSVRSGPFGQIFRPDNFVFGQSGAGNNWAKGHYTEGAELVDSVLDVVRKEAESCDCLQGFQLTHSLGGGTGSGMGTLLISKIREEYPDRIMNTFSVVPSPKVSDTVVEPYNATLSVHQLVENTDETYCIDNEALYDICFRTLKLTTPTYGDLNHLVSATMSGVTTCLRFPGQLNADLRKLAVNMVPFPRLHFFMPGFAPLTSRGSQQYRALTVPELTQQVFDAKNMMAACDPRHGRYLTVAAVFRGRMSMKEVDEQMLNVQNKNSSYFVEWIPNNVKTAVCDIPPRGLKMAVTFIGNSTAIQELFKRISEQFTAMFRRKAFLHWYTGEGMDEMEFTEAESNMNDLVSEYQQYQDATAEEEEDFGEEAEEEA
T1 sequence (P68363 whole entry partner): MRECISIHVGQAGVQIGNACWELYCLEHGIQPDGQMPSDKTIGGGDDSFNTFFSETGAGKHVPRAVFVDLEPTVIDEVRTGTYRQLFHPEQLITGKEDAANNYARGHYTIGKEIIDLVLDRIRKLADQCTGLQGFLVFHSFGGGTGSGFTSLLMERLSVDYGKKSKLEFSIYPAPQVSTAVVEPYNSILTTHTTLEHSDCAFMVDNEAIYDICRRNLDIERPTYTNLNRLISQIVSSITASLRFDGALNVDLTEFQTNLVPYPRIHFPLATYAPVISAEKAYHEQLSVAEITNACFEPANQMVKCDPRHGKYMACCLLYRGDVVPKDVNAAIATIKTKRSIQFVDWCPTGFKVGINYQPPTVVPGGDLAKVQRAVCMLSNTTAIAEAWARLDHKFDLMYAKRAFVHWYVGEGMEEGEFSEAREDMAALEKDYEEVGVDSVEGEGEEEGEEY

Compound: COc1cccc2c1C(=O)c1c(O)c3c(c(O)c1C2=O)C[C@@](O)(C(=O)CO)C[C@@H]3O[C@H]1C[C@H](N)[C@H](O)[C@H](C)O1 [DOX, doxorubicin, reference compound]
- level of Bax protein [1]: 259.2 pg/mL
- IC50 [2]: 1.09 ± 3 µg/mL (≈ 2.01 µM)
- level of caspase-3 [3]: 650 ng/mL
- IC50 [4]: 0.54 ± 1 µg/mL (≈ 0.994 µM)
- IC50 [5]: 7.07 ± 1 µg/mL (≈ 13 µM)
- level of caspase-7 [6]: 1.9 ng/mL

Compound: CC1(C(=O)NCC(=O)NCC(=O)NCC(=O)NCC(=O)O)CCC2(C)CCC3(C)C(=CC(=O)C4C5(C)CCC(O)C(C)(C)C5CCC43C)C2C1 (stereo not drawn) [Compound 5, 1-(10-Hydroxy-2,4a,6a,6b,9,9,12a-heptamethyl-13-oxo-1,2,3,4,4a,5,6,6a,6b,7,8,8a,9,10,11,12,12a,12b,13,14b-icosahydropicen-2-yl)-1,4,7,10-tetraoxo-2,5,8,11-tetraazatridecan-13-oic Acid] (X1-GGGG-OH)
- level of Bax protein [1]: 249.9 pg/mL
- Diameter of Inhibition Zone (mm) [7]: 30 ± 0.15 mm
- cytotoxic effect on normal cells BJ-1 [8]: 20%
- IC50 [2]: 5.2 ± 0.8 µg/mL (≈ 7.44 µM)
- cytotoxicity percentage ([2]; human, 10 µg/mL): 96.16%
- level of caspase-3 [3]: 477 ng/mL
- Diameter of Inhibition Zone (mm) [9]: 10 ± 0.17 mm
- Diameter of Inhibition Zone (mm) [10]: 13 ± 0.17 mm
- IC50 [11]: 848 nM
- Diameter of Inhibition Zone (mm) [12]: 18 ± 0.23 mm
- Diameter of Inhibition Zone (mm) [13]: 17 ± 0.16 mm
- DNA fragmentation, times the percent in untreated cells [14]: about 4.5 fold
- percentage of DNA fragmentation ([14]; untreated 7.8%): 35%
- IC50 [5]: 5 ± 0.3 µg/mL (≈ 7.15 µM)
- Diameter of Inhibition Zone (mm) [15]: 16 ± 0.12 mm
- Diameter of Inhibition Zone (mm) [16]: 15 ± 0.15 mm
- rise of p53 level versus untreated MCF-7 ([17]; MCF-7, 5 μg/mL, 24 h): approximately six-fold
- level of p53 ([17]; MCF-7 cells treated at IC50 5 μg/mL for 24 h, untreated 111.07 Pg/mL): 679.8 pg/mL
- caspase-7 level elevation versus untreated cells ([6]; MCF-7, 5 μg/mL, 24 h): about a three-fold
- level of caspase-7 [6]: 0.9 ng/mL
- level of Bcl-2 [18]: 3.40 ng/mL

— article PMC8346995, “Synthesis, Characterization, In Vitro Anticancer Potentiality, and Antimicrobial Activities of Novel Peptide–Glycyrrhetinic-Acid-Based Derivatives” (Molecules, 2021)
